Data on nine compounds can be found in paper PMC11547840, “The Intestinal Barrier Protective Effect of Indole Aldehyde Derivatives on Acute Toxoplasma gondii Infection” (Molecules, 2024).

“Also recorded” adds a separate entry of the source. Like-named read-outs stand apart in the source and are kept apart here.

One assay has as its system IEC-6 cells. Briefly: MTT cytotoxicity assay in IEC-6 cells. The format is cell-based. The following applies: Rattus norvegicus, read-out: IC50 in IEC-6 Cells. The method, then:
(§1) Anti-T. gondii activity and cytotoxicity of indole derivatives in vitro were evaluated by MTT assay (Solarbio, Beijing, China) using a slightly modified version of the procedure of Shang et al.. IEC-6 cells were seeded onto the 96-well plates (2 × 10^3/well) for 24 h to obtain the full monolayer, and then the host cells were infected with T. gondii (parasite: cell = 3:1) in complete medium. After 24 h, cells were washed to remove any extra parasites and then incubated with different concentrations (20, 200, 500 and 1000 μm) of […]. […] After 24 h of treatment, MTT solution was added directly to the culture wells and then incubated for 4 h at 37 °C. The optical absorbance was measured at a wavelength of 548 nm using a microplate reader (SpectraMax M2, Molecular Devices, Sunnyvale, CA, USA). Giemsa staining was used to observe the changes in cell morphology and the proliferation of T. gondii-infected cells. IEC-6 (1 × 10^5 cells/well) was inoculated into 24-well plates containing round coverslip, and after the cells were attached to the wall, T. gondii (3 × 10^5 cells/well) was added to infect the cells for 3 h. After the culture medium was discarded, PBS was added to remove the uninvaded tachyzoites. […] After discarding the supernatant, the cells were washed with PBS and completely aspirated, and then fixed by adding 0.5 mL of methanol for 3 min. Giemsa staining solution was added and shaken slightly to make the staining uniform. Coverslips were rinsed with distilled water to replace the staining solution, and finally, the slices were sealed with neutral gum and air-dried.
Background: Tetrazolium dyes change colour on reduction, which living cells bring about.

Assay [1] relates to T. gondii. Briefly: MTT anti-T. gondii activity in T. gondii-infected IEC-6 cells. It is filed as cell-based, Toxoplasma gondii. The following applies: for Selective Index (SI): IC50 in IEC-6 cells/IC50 in T. gondii-infected IEC-6 cells; for IC50: Toxoplasma gondii, read-out: IC50 in T. gondii. As to the method:
as §1

Assay [2] deals with T. gondii. Briefly: Giemsa staining: cell infection rate and intracellular tachyzoites in IEC-6 cells. It is filed as cell-based, Toxoplasma gondii. Particulars: IEC-6 cells infected 3 h, drug 12 h at the IC50 value of the cells; for cell infection rate: Toxo group 49.2%; for number of intracellular tachyzoites: Toxo group 254. The method, then: as §1
The subject of assay [3] is IEC-6 cells with T. gondii infection. Briefly: NO level of T. gondii-infected IEC-6 cells (Griess). It is filed as cell-based. Particulars: Griess method, cell supernatant; compared with Toxo group. The method, then: (§2) The Greiss method was used to determine the NO content in small intestine tissues and cells. The above small intestine tissue homogenate or IEC-6 cell supernatant was centrifuged at 4 °C and 1500 rpm for 15 min, and the absorbance was measured at 540 nm by adding equal amounts of Griess A and B reagents to the supernatant. The standard used in the NO standard curve was sodium nitrite, and the NO content in the samples was calculated by substituting the absorbance values of the samples into the regression equation of the standard curve.
Background: The Griess reaction detects nitrite, a stable product of nitric oxide.

Assay [4] relates to T. gondii. Kind of assay: In vivo anti-T. gondii activity, peritoneal tachyzoite count by Trypan Blue. Particulars: 100 mg/kg oral once a day for 6 days; for Number of Tachyzoites: peritoneal cavity of KM female mice, i.p. 2 × 10^3 tachyzoites, Toxo 12.28 ± 0.39; for Inhibition Rate: mice peritoneal T. gondii, (untreated group − treated group)/untreated group × 100%. Further details: species or system Toxoplasma gondii. An excerpt:
(§3) For the in vivo study, KM female mice were divided into groups consisting of six animals each and then intraperitoneally injected with 2 × 10^3 tachyzoites. […] On the last day, heart blood samples were collected after anesthesia to separate the serum, and after mice were sacrificed by cervical dislocation, mice were dissected to obtain organs and tissues. The tachyzoites were harvested from mice peritoneal cavities to determine the level of tachyzoite proliferation. The peritoneal fluid was collected twice; the first time, it was centrifuged at 500 rpm for 10 min, then the supernatant was centrifuged at 2500 rpm for 20 min, discarded, and the worm precipitate was collected at the bottom, and mixed with an appropriate amount of physiological saline. A total of 10 μL of T. gondii suspension was mixed with 10 μL of 4% Trypan blue staining solution in a 1.5 mL centrifuge tube.

A short description of assay [5]: Small intestine histology and pathology scoring of T. gondii-infected mice. The format is in vivo. Particulars: 100 mg/kg oral once a day for 6 days.
From the text: as §3
The histology research includes apparent pathological change score, H&E staining and histopathological scores of tissue, as shown in Table 4 and Table 5. In detail, the obtained small intestine tissues were fixed in formalin solution and embedded in paraffin wax after gradual dehydration with different concentrations of ethanol. The paraffin fast was sectioned to a thickness of 5 μm, rehydrated and stained with hematoxylin and eosin, respectively, and finally permeabilized with xylene and sealed with neutral gum. A light microscope was used to observe and collect pictures, and the degree of damage to the small intestinal tissues was assessed according to Chiu’s six-grade scale.

Assay [6] deals with small intestine of mice with T. gondii infection. Briefly: Small intestine and serum biochemical parameters (GSH, MDA, NO, DAO) of T. gondii-infected mice. The following applies: 100 mg/kg oral once a day for 6 days. It is filed as in vivo.
From the text: as §3
The GSH was measured according to the method in [58]. The intestine homogenate was mixed with half volume trichloroacetic acid (20%, w/v) and centrifuged at 4000 rpm for 10 min. Then, phosphate buffer (phosphate 0.3 mol/L, pH 7.5) and 5,5-dithio-bis-(2-nitrobenzoic acid) (0.04%, w/v) were added to the separated supernatant and mixed thoroughly. After 5 min at room temperature, the absorbance was measured at 412 nm.
MDA was measured by the standard method with minor modifications. The small intestine homogenate supernatant was mixed with thiobarbituric acid (0.5%, w/v) and heated in boiling water bath for 1 h, then cooled quickly and centrifuged at 6000 rpm for 10 min; the absorbance of pink colored supernatant was measured at 532 nm. Tetraethoxypropane replaced the intestine homogenate in the standard sample.
as §2
The DAO evaluation experimental method of Xin Y et al. was adopted, in which mouse heart blood was taken from a 1.5 mL centrifuge tube and centrifuged at 4 °C and 3000× g for 10 min, and the upper layer of serum was taken for measurement. Another 1.5 mL tube was taken and 600 μL of phosphate buffer, 20 μL of horseradish peroxidase, 20 μL of dianisidine dihydrochloride hydrochloride, and 20 μL of 1,5-pentanediamine hydrochloride were added. After that, 100 μL of serum samples to be tested was added, mixed well and heated at 37 °C for 18 h. The absorbance was measured at 436 nm. […]. A total of 100 μL of distilled water was used in the blank tube instead of serum, and the standard used in the standard curve was diamine oxidase. The absorbance value of the experimental samples was substituted into the regression equation of the standard curve to calculate the content of DAO in the serum samples.

The mark [7] stands for this setting: MTT, concentration required to reduce IEC-6 cell growth by 50%, 24 h treatment.
Setting [8] is: MTT, concentration required to reduce T. gondii-infected IEC-6 cell growth by 50%, 24 h treatment.

With `N#CCc1cn(C=O)c2ccccc12` [A1, 1-Formyl-1H-indole-3-acetonitrile], the IC50 – broadly, the midpoint of a concentration-inhibition curve – with IEC-6 cells (setting [7]) was 417 µM. Besides, the “Selective Index (SI)” value with T. gondii [1] was 1.2. In the assay on T. gondii [1] (setting [8]), the IC50 turned out to be 342 µM. For the same compound, the cell infection rate in the assay with T. gondii [2] was found to be 26.0%. In addition, the “NO level of IEC-6 cells with T. gondii infection” value (shortened to “NO level of IEC-6 cells”) in assay [3] is recorded as “significantly decreased the release of intracellular nitric oxide”. Also, the “Number of Tachyzoites” value in the assay with T. gondii [4] is listed as 8.17 ± 0.84 ×10^6. Besides, the “intestinal barrier damage induced by T. gondii infection (histology, H&E)” value in assay [5] is given as “demonstrate potential in ameliorating intestinal barrier damage”. Besides, in assay [6], the “DAO level in serum” value is reported as “mitigate the elevated levels”; the “MDA level in small intestine tissue” value is on record as “surpassed that of the positive control drug, Spy”; the “NO level in small intestine tissue” value is reported as “mitigate the elevated levels”.
As to `NCCc1cn(C=O)c2ccccc12` [A2, 1-Formyl-1H-indole-3-ethanamine], the IC50 was more than 1000 µM in the assay with IEC-6 cells (IEC-6, 24 h) and more than 1000 µM in the assay on T. gondii [1] (IEC-6, 24 h).
`O=Cc1c[nH]c2ccccc12` [A3, Indole-3-carboxaldehyde]: the IC50 in the assay on IEC-6 cells (setting [7]) was found to be 869.2 ± 4 µM. Besides, the “Selective Index (SI)” value with T. gondii [1] is reported as 1.3. Further, the IC50 with T. gondii [1] (setting [8]) stood at 675 ± 8.3 µM. For the same compound, in the assay with T. gondii [2], the cell infection rate came to 15.0% and the “number of intracellular tachyzoites” value is “more effective than Spy”. Also, the “NO level of IEC-6 cells” value in assay [3] is reported as “lowest NO release levels; also recorded: significantly decreased the release of intracellular nitric oxide”. In the assay on T. gondii [4], the “Inhibition Rate” value was found to be 33.3% and the “Number of Tachyzoites” value is listed as 8.22 ± 1.49 ×10^6. In assay [5], the “apparent pathological damage score (intestine apparent pathology scoring)” value was “significantly lower apparent pathological damage score compared to Spy” and the “intestinal barrier damage induced by T. gondii infection (histology, H&E)” value is on record as “most effective, surpassing the control drug Spy in efficacy”. In assay [6], the “DAO level in serum” value was “more significant”; the “GSH level in small intestine tissue” value was “significantly higher than that observed with the positive control drug, Spy”; the “MDA level in small intestine tissue” value was “effective inhibition of the MDA increase”; the “NO level in small intestine tissue” value is reported as “less pronounced compared to the other derivatives”.
For `O=Cc1c[nH]c2ncc(Br)cc12` [A4, 5-bromo-1H-pyrrolo[2,3-b] pyridine-3-carbaldehyde], the IC50 with IEC-6 cells (setting [7]) amounted to 960.3 ± 2.5 µM; with T. gondii [1] (setting [8]) it was 995.7 ± 4.9 µM. For the same compound, in the assay on T. gondii [1], the “Selective Index (SI)” value is listed as 1.0.
In the case of `O=Cc1c(Cl)[nH]c2ccccc12` [A5, 2-Chloro-1H-indole-3-carbaldehyde], in the assay with IEC-6 cells (setting [7]), the IC50 worked out at 602 ± 9.9 µM. Besides, in the assay on T. gondii [1], the “Selective Index (SI)” value was 1.1. For the same compound, the IC50 in the assay on T. gondii [1] (setting [8]) came out at 564 ± 6.9 µM. In the assay with T. gondii [2], the cell infection rate was determined as 20.3% and the “number of intracellular tachyzoites” value was “more effective than Spy”. The “NO level of IEC-6 cells” value in assay [3] is “significantly decreased the release of intracellular nitric oxide”. In the assay with T. gondii [4], the “Inhibition Rate” value is 22.2% and the “Number of Tachyzoites” value was 9.56 ± 0.92 ×10^6. Besides, the “intestinal barrier damage induced by T. gondii infection (histology, H&E)” value in assay [5] is on record as “demonstrate potential in ameliorating intestinal barrier damage”. Moreover, in assay [6], the “DAO level in serum” value is “mitigate the elevated levels”, the “MDA level in small intestine tissue” value is recorded as “effective inhibition of the MDA increase” and the “NO level in small intestine tissue” value was “mitigate the elevated levels”.
Regarding `COC(=O)c1cn(C=O)c2ccccc12` [A6, 1-formyl-1H-indole-3-carboxylic acid methyl ester], the IC50 stood at 633 ± 9.8 µM in the assay with IEC-6 cells (IEC-6, 24 h) and 742 ± 10.5 µM in the assay with T. gondii [1] (IEC-6, 24 h). The “Selective Index (SI)” value in the assay on T. gondii [1] stood at 0.9.
Take `Clc1cc2ccccc2[nH]1` [A7, 2-Chloro-1H-indole]: the concentration for half-maximal inhibition (IC50) stood at 283.7 ± 2.6 µM in the assay on IEC-6 cells (setting [7]) and 287 ± 6.1 µM in the assay with T. gondii [1] (setting [8]). Further, the “Selective Index (SI)” value with T. gondii [1] amounted to 1.0.
As for `Cn1cc(C=O)c2ccccc21` [A8, 1-Methyl-indole-3-carbaldehyde], the concentration for half-maximal inhibition (IC50) in the assay with IEC-6 cells (setting [7]) was 650 ± 7.9 µM. Also, in the assay on T. gondii [1], the “Selective Index (SI)” value is given as 1.1. Besides, the IC50 with T. gondii [1] (setting [8]) is 571 ± 7.4 µM. Also, in the assay on T. gondii [2], the cell infection rate is on record as 20.5% and the “number of intracellular tachyzoites” value was “more effective than Spy”. Further, in assay [3], the “NO level of IEC-6 cells” value is “significantly decreased the release of intracellular nitric oxide”. For the same compound, in the assay with T. gondii [4], the “Number of Tachyzoites” value is recorded as 8.92 ± 0.51 ×10^6. Moreover, the “intestinal barrier damage induced by T. gondii infection (histology, H&E)” value in assay [5] was “demonstrate potential in ameliorating intestinal barrier damage”. Moreover, the “DAO level in serum” value in assay [6] is “mitigate the elevated levels”. In addition, in assay [6] (100 mg/kg), the “MDA level in small intestine tissue” value is listed as “effective inhibition of the MDA increase; also recorded: slightly outperformed A9” and the “NO level in small intestine tissue” value was “mitigate the elevated levels; also recorded: slightly outperformed A9”.
On to `c1ccc2[nH]ccc2c1` [Indole, indole], for which the IC50 with IEC-6 cells (IEC-6, 24 h) came out at 939.6 ± 5.4 µM; in the assay on T. gondii [1] (IEC-6, 24 h), 921.2 ± 5 µM. In the assay with T. gondii [1], the “Selective Index (SI)” value is recorded as 1.0. Also, in the assay on T. gondii [2], the cell infection rate stood at 32.2%. Moreover, the “Number of Tachyzoites” value with T. gondii [4] is 10.33 ± 2.84 ×10^6.
